Measured values taken from article PMC9841523 (Journal of Medicinal Chemistry, 2022).

Tests used:
p-P70S6K Thr389 = assay: AlphaLISA/MSD analysis of S6K phosphorylation in MDA-MB-468 cells; format: cell-based; settings: Homo sapiens, MDA-MB-468, read-out: pS6K IC50
Protocol: (§1) Cell culture and reagents. Cells were obtained from ATCC, grown in appropriate medium supplemented with 10% fetal bovine serum and 1% penicillin/streptomycin and maintained at 37 °C in a humidified incubator at 5% CO 2.
(§2) AlphaLISA and MesoScale Discovery (MSD) analysis of 4EBP1, S6K and AKT phosphorylation. mTOR substrate phosphorylation in MDA-MB-468 cells was assayed using AlphaLISA SureFire Ultra kits for p4EBP1 Thr37/46, p-P70S6K Thr389 and p-AKT1/2/3 Ser473 (PerkinElmer), and MSD Multi-Array Assay Systems for Phospho-4EBP1 (Thr37/46) and Phospho-AKT (Ser473) (MSD). Cells were seeded at 25,000 cells per well and exposed the next day to serial three-fold dilutions of compounds in complete medium with 0.1% dimethylsulfoxide (DMSO). After indicated incubation times, cells were lysed and AlphaLISA or MSD performed according to the manufacturers’ protocols. Samples were read using an EnVision Multilabel Plate Reader (PerkinElmer) using standard AlphaLISA settings or using an MSD plate reader. Data were plotted as a function of logM [compound] with a sigmoidal concentration response (variable slope) model fitted to the data to estimate the inhibitor half-maximum effective concentration (EC 50) in Prism 7 (GraphPad). Alternatively, results were analyzed as percentage of control in which 0% was set as signal from 1 μM Torin1 and 100% was set as the mean of DMSO wells on each plate, and inhibitor EC 50 was estimated as described

[1] = tested on: AKT S473 phosphorylation (mTORC2); assay: AlphaLISA/MSD analysis of AKT phosphorylation in MDA-MB-468 cells; format: cell-based; settings: Homo sapiens, MDA-MB-468, read-out: pAKT IC50
Protocol: as §1, §2

[2] = target: T1, A2A(h) (agonist radioligand) (Homo sapiens, UniProt P29274); assay: Eurofins Safety Screen 44; format: binding; settings: read-out: % Inhibition of Control Values
T1 construct: purchased ActivX Biosciences (KiNativ)

[3] = target: T2, α1A(h) (antagonist radioligand) (Homo sapiens, UniProt P35348); assay: Eurofins Safety Screen 44; format: binding; settings: read-out: % Inhibition of Control Values
T2 construct: purchased ActivX Biosciences (KiNativ)
T2 sequence (P35348 whole entry): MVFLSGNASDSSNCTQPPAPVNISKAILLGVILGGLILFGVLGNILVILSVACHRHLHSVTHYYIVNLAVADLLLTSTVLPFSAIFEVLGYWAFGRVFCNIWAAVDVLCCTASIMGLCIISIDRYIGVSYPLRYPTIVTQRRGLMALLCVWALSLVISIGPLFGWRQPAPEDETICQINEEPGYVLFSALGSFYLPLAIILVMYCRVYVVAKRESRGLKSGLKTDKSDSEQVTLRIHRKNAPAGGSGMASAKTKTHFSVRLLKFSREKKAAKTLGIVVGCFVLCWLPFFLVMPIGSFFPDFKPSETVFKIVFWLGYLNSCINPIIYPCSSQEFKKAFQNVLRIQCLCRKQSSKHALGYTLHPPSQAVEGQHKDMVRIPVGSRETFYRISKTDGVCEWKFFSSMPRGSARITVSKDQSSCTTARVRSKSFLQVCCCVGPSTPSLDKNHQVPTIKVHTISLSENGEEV

[4] = target: T3, α2A(h) (antagonist radioligand) (Homo sapiens, UniProt P08913); assay: Eurofins Safety Screen 44; format: binding; settings: read-out: % Inhibition of Control Values
T3 construct: purchased ActivX Biosciences (KiNativ)
T3 sequence (P08913 whole entry): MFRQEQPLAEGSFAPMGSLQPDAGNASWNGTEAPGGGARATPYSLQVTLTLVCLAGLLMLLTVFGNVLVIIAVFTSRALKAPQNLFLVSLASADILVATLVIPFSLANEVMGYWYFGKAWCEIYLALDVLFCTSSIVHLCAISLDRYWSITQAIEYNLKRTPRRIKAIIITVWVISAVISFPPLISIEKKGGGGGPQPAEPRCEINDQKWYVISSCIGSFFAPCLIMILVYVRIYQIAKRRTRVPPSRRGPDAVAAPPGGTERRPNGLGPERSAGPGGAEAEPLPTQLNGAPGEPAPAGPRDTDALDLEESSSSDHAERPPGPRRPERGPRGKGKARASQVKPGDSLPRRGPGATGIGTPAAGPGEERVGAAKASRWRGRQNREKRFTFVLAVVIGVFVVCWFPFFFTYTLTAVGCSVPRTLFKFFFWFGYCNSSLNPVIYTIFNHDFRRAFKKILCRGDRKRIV

[5] = target: T4, β1(h) (agonist radioligand) (Homo sapiens, UniProt P08588); assay: Eurofins Safety Screen 44; format: binding; settings: read-out: % Inhibition of Control Values
T4 construct: purchased ActivX Biosciences (KiNativ)
T4 sequence (P08588 whole entry): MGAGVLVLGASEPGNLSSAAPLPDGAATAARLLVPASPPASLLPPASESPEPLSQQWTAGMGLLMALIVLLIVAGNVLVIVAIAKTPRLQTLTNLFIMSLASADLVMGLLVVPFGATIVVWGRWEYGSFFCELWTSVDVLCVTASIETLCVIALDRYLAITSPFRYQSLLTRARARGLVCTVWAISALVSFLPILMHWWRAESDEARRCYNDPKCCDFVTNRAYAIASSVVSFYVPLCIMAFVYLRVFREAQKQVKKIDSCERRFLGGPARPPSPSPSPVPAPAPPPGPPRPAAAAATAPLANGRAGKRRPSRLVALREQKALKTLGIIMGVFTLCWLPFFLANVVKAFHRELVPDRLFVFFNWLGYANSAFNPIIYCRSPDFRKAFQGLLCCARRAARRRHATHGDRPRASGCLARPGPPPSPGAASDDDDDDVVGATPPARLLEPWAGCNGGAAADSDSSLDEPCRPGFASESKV

[6] = target: T5, β2(h) (antagonist radioligand) (Homo sapiens, UniProt P07550); assay: Eurofins Safety Screen 44; format: binding; settings: read-out: % Inhibition of Control Values
T5 construct: purchased ActivX Biosciences (KiNativ)

[7] = target: T6, D2S(h) (agonist radioligand) (Homo sapiens, UniProt P14416); assay: Eurofins Safety Screen 44; format: binding; settings: read-out: % Inhibition of Control Values
T6 construct: purchased ActivX Biosciences (KiNativ)
T6 sequence (P14416 1-414 isoform P14416-2): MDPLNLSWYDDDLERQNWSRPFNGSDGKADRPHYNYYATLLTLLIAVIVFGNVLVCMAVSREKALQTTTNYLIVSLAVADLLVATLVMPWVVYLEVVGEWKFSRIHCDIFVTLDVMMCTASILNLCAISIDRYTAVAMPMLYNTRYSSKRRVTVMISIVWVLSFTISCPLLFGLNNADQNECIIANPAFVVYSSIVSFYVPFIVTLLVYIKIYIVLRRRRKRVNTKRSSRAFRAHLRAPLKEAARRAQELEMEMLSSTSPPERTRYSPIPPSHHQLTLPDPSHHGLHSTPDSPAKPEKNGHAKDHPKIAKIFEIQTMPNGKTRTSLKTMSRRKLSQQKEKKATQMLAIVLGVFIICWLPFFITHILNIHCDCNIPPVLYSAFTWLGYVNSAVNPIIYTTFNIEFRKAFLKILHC

[8] = target: T7, MAO-A (antagonist radioligand) (Rattus norvegicus, UniProt P21396); assay: Eurofins Safety Screen 44; format: binding; settings: read-out: % Inhibition of Control Values
T7 construct: purchased ActivX Biosciences (KiNativ)
T7 sequence (P21396 whole entry): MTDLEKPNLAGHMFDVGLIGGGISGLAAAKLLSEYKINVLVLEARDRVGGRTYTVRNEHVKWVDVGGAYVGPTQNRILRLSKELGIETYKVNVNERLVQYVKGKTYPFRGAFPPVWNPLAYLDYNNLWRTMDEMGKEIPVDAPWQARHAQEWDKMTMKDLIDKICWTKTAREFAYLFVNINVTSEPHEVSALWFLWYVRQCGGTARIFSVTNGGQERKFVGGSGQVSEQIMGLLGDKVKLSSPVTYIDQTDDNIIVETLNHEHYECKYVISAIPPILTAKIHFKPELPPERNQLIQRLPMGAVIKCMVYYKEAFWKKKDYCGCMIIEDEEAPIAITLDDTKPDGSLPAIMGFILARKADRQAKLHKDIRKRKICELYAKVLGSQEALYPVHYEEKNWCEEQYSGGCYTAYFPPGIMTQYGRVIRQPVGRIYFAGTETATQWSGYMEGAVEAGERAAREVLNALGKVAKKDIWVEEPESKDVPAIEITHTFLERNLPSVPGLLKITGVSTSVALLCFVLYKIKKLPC

[9] = target: T8, kappa (h) (KOP) (agonist radioligand) (Homo sapiens, UniProt P41145); assay: Eurofins Safety Screen 44; format: binding; settings: read-out: % Inhibition of Control Values
T8 construct: purchased ActivX Biosciences (KiNativ)

[10] = target: T9, 5-HT2A(h) (agonist radioligand) (Homo sapiens, UniProt P28223); assay: Eurofins Safety Screen 44; format: binding; settings: read-out: % Inhibition of Control Values
T9 construct: purchased ActivX Biosciences (KiNativ)
T9 sequence (P28223 whole entry): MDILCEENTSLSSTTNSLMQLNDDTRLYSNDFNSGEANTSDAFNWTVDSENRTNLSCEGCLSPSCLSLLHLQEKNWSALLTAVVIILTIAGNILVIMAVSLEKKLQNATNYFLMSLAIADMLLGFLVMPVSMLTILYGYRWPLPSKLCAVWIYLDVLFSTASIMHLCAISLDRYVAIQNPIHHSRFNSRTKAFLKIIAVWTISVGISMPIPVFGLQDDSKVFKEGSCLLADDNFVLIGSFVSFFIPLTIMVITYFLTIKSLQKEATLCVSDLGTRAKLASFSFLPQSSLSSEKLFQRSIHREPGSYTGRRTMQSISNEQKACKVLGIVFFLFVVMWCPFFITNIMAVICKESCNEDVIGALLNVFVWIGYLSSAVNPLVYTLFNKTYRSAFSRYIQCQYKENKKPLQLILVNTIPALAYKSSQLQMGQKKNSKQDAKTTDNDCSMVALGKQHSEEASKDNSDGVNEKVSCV

[11] = target: T10, 5-HT2B(h) (agonist radioligand) (Homo sapiens, UniProt P41595); assay: Eurofins Safety Screen 44; format: binding; settings: read-out: % Inhibition of Control Values
T10 construct: purchased ActivX Biosciences (KiNativ)
T10 sequence (P41595 whole entry): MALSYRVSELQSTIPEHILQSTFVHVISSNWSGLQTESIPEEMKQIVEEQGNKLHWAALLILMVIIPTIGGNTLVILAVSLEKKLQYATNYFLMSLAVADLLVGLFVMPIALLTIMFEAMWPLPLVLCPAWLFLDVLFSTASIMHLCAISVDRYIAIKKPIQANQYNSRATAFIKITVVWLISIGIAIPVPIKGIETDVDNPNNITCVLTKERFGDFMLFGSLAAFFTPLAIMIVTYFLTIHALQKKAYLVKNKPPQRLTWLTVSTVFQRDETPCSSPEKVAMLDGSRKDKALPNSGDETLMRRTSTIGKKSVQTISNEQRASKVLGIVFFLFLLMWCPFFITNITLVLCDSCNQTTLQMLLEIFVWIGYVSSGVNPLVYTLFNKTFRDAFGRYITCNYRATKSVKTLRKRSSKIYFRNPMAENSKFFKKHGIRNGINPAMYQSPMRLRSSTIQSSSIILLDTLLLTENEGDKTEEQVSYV

[12] = tested on: AR (h) (agonist radioligand); assay: Eurofins Safety Screen 44; format: binding, human; settings: 10 µM
[13] = target: T11, V1a(h) (agonist radioligand) (Homo sapiens, UniProt P37288); assay: Eurofins Safety Screen 44; format: binding; settings: read-out: % Inhibition of Control Values
T11 construct: purchased ActivX Biosciences (KiNativ)
T11 sequence (P37288 whole entry): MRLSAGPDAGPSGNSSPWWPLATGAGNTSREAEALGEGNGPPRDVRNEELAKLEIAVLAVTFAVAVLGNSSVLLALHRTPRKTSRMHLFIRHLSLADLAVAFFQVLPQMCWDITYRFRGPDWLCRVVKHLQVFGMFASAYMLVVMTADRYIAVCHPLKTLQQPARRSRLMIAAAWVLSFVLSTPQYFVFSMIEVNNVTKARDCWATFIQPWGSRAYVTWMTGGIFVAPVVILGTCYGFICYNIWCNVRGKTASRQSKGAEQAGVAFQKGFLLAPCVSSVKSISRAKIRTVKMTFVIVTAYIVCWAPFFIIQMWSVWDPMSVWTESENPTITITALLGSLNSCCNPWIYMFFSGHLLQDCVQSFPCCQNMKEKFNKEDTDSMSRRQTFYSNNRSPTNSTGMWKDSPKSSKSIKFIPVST

[14] = tested on: KV channel (antagonist radioligand); assay: Eurofins Safety Screen 44; format: binding; settings: 10 µM
[15] = tested on: Na+ channel (site 2) (antagonist radioligand); assay: Eurofins Safety Screen 44; format: binding; settings: 10 µM
[16] = target: T12, 5-HT transporter (h) (antagonist radioligand) (Homo sapiens, UniProt P31645); assay: Eurofins Safety Screen 44; format: binding; settings: read-out: % Inhibition of Control Values
T12 construct: Eurofins (ran the panel)
T12 sequence (P31645 whole entry): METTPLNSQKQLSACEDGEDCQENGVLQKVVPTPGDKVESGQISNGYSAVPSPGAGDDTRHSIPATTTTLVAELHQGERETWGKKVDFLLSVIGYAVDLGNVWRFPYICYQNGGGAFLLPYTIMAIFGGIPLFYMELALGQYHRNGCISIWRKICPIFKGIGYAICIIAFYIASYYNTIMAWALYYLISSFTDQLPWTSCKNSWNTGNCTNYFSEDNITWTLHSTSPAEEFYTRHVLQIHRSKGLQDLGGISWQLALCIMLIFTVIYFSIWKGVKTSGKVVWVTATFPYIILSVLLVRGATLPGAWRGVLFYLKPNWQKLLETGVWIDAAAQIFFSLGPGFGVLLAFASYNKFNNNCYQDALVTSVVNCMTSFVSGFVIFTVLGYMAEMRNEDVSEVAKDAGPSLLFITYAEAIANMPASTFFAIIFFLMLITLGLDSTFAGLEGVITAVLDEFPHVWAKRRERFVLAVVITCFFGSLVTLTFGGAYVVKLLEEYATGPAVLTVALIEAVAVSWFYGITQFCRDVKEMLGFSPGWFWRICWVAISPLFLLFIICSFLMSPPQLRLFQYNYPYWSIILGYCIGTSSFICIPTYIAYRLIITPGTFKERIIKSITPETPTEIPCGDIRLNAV

Lck kinase (h) = target: T13, Lck kinase (h) (Homo sapiens, UniProt P06239); assay: Eurofins Safety Screen 44; format: biochemical; settings: read-out: % Inhibition of Control Values
T13 construct: Eurofins (ran the panel)
T13 sequence (P06239 whole entry): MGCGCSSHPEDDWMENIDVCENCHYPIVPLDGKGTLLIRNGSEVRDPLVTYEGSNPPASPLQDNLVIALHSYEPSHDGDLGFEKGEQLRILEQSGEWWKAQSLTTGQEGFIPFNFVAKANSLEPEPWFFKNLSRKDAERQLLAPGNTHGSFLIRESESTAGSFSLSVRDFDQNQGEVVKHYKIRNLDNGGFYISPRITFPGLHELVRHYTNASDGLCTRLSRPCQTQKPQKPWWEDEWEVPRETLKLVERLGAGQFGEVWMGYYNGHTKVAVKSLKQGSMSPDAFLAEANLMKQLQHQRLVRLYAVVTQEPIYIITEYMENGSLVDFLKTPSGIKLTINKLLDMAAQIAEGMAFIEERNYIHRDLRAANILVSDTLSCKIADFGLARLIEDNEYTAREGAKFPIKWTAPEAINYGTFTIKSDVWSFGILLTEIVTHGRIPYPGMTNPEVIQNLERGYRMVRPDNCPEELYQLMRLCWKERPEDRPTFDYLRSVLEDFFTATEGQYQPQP

[17] = tested on: Safety Screen 44 off-targets; assay: Eurofins Safety Screen 44, whole panel; settings: 10 µM
ROCK1, ROCK2 = assay: KiNativ kinase panel; format: cell-based, human; settings: 1 μM; MCF-7 Cells; Lys1; VYAMKLLSK
Wnk1, Wnk2, Wnk4 = assay: KiNativ kinase panel; format: cell-based, human; settings: 1 μM; MCF-7 Cells; Activation Loop; IGDLGLATLKR

Q: Which IC50 (p-P70S6K Thr389) does the source give for `CO[C@H]1C[C@@H]2CC[C@@H](C)[C@@](O)(O2)C(=O)C(=O)N2CCCC[C@H]2C(=O)O[C@H]([C@H](C)C[C@@H]2CC[C@@H](OC(=O)NCCOCCOCCOCCOCCOCCOCCOCCOCCC(=O)N3CCc4cc(Cn5nc(-c6ccc7oc(N)nc7c6)c6c(N)ncnc65)ccc4C3)[C@H](OC)C2)C[C@@H](O)[C@H](C)/C=C(\C)[C@@H](O)[C@@H](OC)C(=O)[C@H](C)C[C@H](C)/C=C/C=C/C=C/1C` [compound 38] here?
A: 0.14 nM

Q: And the IC50 [1]?
A: 19 nM

Q: What about the inhibition at 10 µM [2] of the same molecule?
A: -4.5%

Q: What about the inhibition at 10 µM [3] of the same molecule?
A: 0.6%

Q: And the inhibition at 10 µM [4]?
A: -2.1%

Q: What about the inhibition at 10 µM [5] of the same molecule?
A: 3%

Q: What about the inhibition at 10 µM [6] of the same molecule?
A: -3.3%

Q: And the inhibition at 10 µM [7]?
A: 12.2%

Q: And the inhibition at 10 µM [8]?
A: 5.5%

Q: And the inhibition at 10 µM [9]?
A: 0.6%

Q: What about the inhibition at 10 µM [10] of the same molecule?
A: -28.9%

Q: And the inhibition at 10 µM [11]?
A: -14.5%

Q: And the “% Inhibition of Control Values” [12]?
A: -14.9%

Q: What about the inhibition at 10 µM [13] of the same molecule?
A: 6.5%

Q: What about the “% Inhibition of Control Values” [14] of the same molecule?
A: -8.0%

Q: And the “% Inhibition of Control Values” [15]?
A: 1.0%

Q: What about the inhibition at 10 µM [16] of the same molecule?
A: -4.5%

Q: And the inhibition at 10 µM (Lck kinase (h))?
A: 11.3%

Q: And the “Eurofins Safety Screen 44 inhibition” value [17]?
A: <5% inhibition (low promiscuity)

Q: And the “Eurofins Safety Screen 44 result” value [17]?
A: no significant inhibition

Q: With `CO[C@H]1C[C@@H]2CC[C@@H](C)[C@@](O)(O2)C(=O)C(=O)N2CCCC[C@H]2C(=O)O[C@H]([C@H](C)C[C@@H]2CC[C@@H](OC(=O)NCCOCCOCCOCCOCCOCCOCCOCCOCCC(=O)NCCS(=O)(=O)c3ccc(C(=O)N4CCOc5ccc(-c6ccc(N)nc6)cc5C4)c(C)c3F)[C@H](OC)C2)C[C@@H](O)[C@H](C)/C=C(\C)[C@@H](O)[C@@H](OC)C(=O)[C@H](C)C[C@H](C)/C=C/C=C/C=C/1C` [compound 40] as the molecule, how does the “KiNativ Kinase Panel Data” value (ROCK1, ROCK2) read?
A: -42.0

Q: And the “KiNativ Kinase Panel Data” value (Wnk1, Wnk2, Wnk4)?
A: -17.4
